In assay [1] the test system is M. tuberculosis H37Ra ATCC 25177. The assay is described as follows: In vitro antimycobacterial evaluation, alamarBlue (MIC). Format: cell-based. The conditions noted are these: Mycobacterium tuberculosis, 168 h; M. tuberculosis H37Ra; 7 days, 37 °C, alamarBlue; MIC/IC90; read-out: MIC MT. Here is the method:
The evaluation of the in vitro antimycobacterial activity of the compounds was performed against M. tuberculosis H37Ra ATCC 25177 [25] and clinical isolate of M. avium subsp. paratuberculosis CIT03 [26], see Table 1. The activity of compounds was expressed as the minimum inhibitory concentration (MIC) that is defined for mycobacteria as a 90% or greater (IC90) reduction of growth in comparison with the control. The MIC/IC90 value is routinely and widely used in bacterial assays, being a standard detection limit according to the Clinical and Laboratory Standards Institute.
Mycobacterium tuberculosis H37Ra ATCC 25177 and well characterised clinical isolate M. avium subsp. paratuberculosis CIT03 were grown in Middlebrook broth (MB), supplemented with Oleic-Albumin-Dextrose-Catalase supplement (Becton Dickinson, Oxford, UK) and mycobactin J (2 μg/mL). Identification of these isolates was performed using biochemical and molecular protocols. At log phase growth, a culture sample (10 mL) was centrifuged at 15,000 rpm/20 min using a bench top centrifuge (Model CR 4-12, Jouan Inc., Winchester, VA, USA). Following removal of the supernatant, the pellet was washed in fresh Middlebrook 7H9GC broth and re-suspended in fresh supplemented MB (10 mL). The turbidity was adjusted to match McFarland standard No. 1 (3 × 10^8 cfu) with MB broth. A further 1:20 dilution of the culture was then performed in MB broth. The antimicrobial susceptibility of all three mycobacterial species was investigated in a 96-well plate format. In these experiments, sterile deionised water (300 µL) was added to all outer-perimeter wells of the plates to minimize evaporation of the medium in the test wells during incubation. Sample wells were composed of 100 µL of test compound dilution and 100 µL of the bacterial stock being tested against. Dilutions of each compound were prepared in duplicate. For all synthesized compounds, final concentrations ranged from 1000 μg/mL to 8 μg/mL. All compounds were prepared in DMSO and subsequent dilutions were made in supplemented MB. The plates were sealed with parafilm and incubated at 37 °C, for 7 days in the case of M. tuberculosis and 11 days in the case of M. avium subsp. paratuberculosis. Following incubation, a 10% addition of alamarBlue (AbD Serotec, Kidlington, UK) was mixed into each well and readings at 570 nm and 600 nm were taken, initially for background subtraction and subsequently after 24 h re-incubation. The background subtraction is necessary for strongly coloured compounds, where the colour may interfere with the interpretation of any colour change. For non-interfering compounds, a blue colour in the well was interpreted as an absence of growth and a pink colour was scored as growth. […] The MIC value is routinely and widely used in bacterial assays and is a standard detection limit according to the Clinical and Laboratory Standards Institute (CLSI,). Rifampicin (Sigma-Aldrich) was used as the standard as it is clinically used antimycobacterial drugs.

Assay [2] concerns photosynthetic electron transport in spinach chloroplasts. The assay is described as follows: Inhibition of photosynthetic electron transport (PET), DCPIP photoreduction (Hill reaction). Format: biochemical, spinach (Spinacia oleracea L.). Here is the method:
The PET inhibiting activity of the compounds was expressed by IC50 values. […] The aqueous solubility of the para-substituted compounds was limited; therefore IC50 values could not be determined due to precipitation of compounds during experiment. […]
Chloroplasts were prepared from spinach (Spinacia oleracea L.) according to Masarovicova and Kralova. The inhibition of photosynthetic electron transport (PET) in spinach chloroplasts was determined spectrophotometrically (Genesys 6, Thermo Scientific Corporation), using an artificial electron acceptor 2,6-dichlorophenol-indophenol (DCPIP) according to Kralova et al., and the rate of photosynthetic electron transport was monitored as a photoreduction of DCPIP. The measurements were carried out in phosphate buffer (20.0 mM, pH 7.2) containing sucrose (0.4 M), MgCl2 (5.0 mM) and NaCl (15.0 mM). The chlorophyll content was 30 mg/L in these experiments and the samples were irradiated (~100 W/m^2 with 10 cm distance) with a halogen lamp (250 W) using a 4 cm water filter to prevent warming of the samples (suspension temperature 22 °C). The studied compounds were dissolved in DMSO due to their limited aqueous solubility. The applied DMSO concentration (up to 4%) had negligible effect on the photochemical activity in isolated spinach chloroplasts (observed differences in DCPIP photoreduction due DMSO addition were within experimental error). The inhibitory efficiency of the studied compounds was expressed by IC50 values, i.e., by molar concentration of the compounds causing 50% decrease in DCPIP photoreduction relative to the untreated control. […] All reagents used in this study were of analytical grade and were purchased from Sigma.

The subject of assay [3] is Chla-protein complexes of photosystem II in spinach chloroplasts. Description: Chlorophyll a fluorescence emission spectra in spinach chloroplasts. It is filed as biochemical, spinach (Spinacia oleracea L.). The conditions noted are these: 0, 102, 204, 408 and 612 μM; λex = 436 nm; band at 686 nm. An excerpt: The studied compounds affected chlorophyll a (Chla) fluorescence in spinach chloroplasts indicating their interactions with constituents of photosynthetic apparatus. […] The extent of perturbation of Chla-protein complexes in the thylakoid membrane is reflected in the sharpness of decreased fluorescence of Chla pigment. A similar decrease of Chla fluorescence in plant chloroplasts was also observed previously after treatment with ring-substituted 1-hydroxynaphthalene-2-carboxanilides, 2-hydroxynaphthalene-1-carboxanilides, 5-bromo- and 3,5-dibromo-2-hydroxy-N-phenyl-benzamides and ring-substituted 4-arylamino-7-chloroquinolinium chlorides.
The emission fluorescence spectra were recorded on a fluorescence spectrophotometer F-2000 (Hitachi, Tokyo, Japan) at room temperature (24 °C). The samples of chloroplast suspension (10 mg chlorophyll/L) with and without the studied inhibitor were excited at 436 nm, using an excitation slit 20 nm and emission slit 10 nm, and were kept in the dark for 2 min prior to the measurement. Due to low aqueous solubility the compounds were added to a chloroplast suspension in DMSO solution. The DMSO concentration in all samples was the same as in the control (10%).

Assay [4] relates to methicillin-resistant S. aureus clinical isolate MRSA 63718. The assay is described as follows: In vitro antibacterial susceptibility testing, broth dilution micro-method (MIC). Particulars: Staphylococcus aureus, MRSA, 24 h, read-out: MIC MRSA 63718, clinical isolate MRSA 63718; 24 h, 37 °C, MH broth.
Assay [5] relates to clinical isolate of M. avium subsp. paratuberculosis CIT03. Description: In vitro antimycobacterial evaluation, alamarBlue (MIC). Format: cell-based. The conditions noted are these: Mycobacterium avium, 264 h, read-out: MIC MAP.
For assay [6], the system named is S. aureus ATCC 29213. The assay is described as follows: In vitro antibacterial susceptibility testing, broth dilution micro-method (MIC). The conditions noted are these: Staphylococcus aureus, ATCC29213, 24 h, read-out: MIC SA.
Assay [7] relates to methicillin-resistant S. aureus clinical isolate SA 3202. The assay is described as above. The conditions noted are these: Staphylococcus aureus, MRSA, 24 h, read-out: MIC MRSA 3202, clinical isolate MRSA 3202, 37 °C, MH broth.
Assay [8] deals with methicillin-resistant S. aureus clinical isolate SA 630. The assay is described as above. The conditions noted are these: Staphylococcus aureus, MRSA, 24 h, read-out: MIC MRSA SA 630, clinical isolate MRSA SA 630, 37 °C, MH broth.

Consider one molecule from article PMC6272341, “Synthesis and Biological Evaluation of N-Alkoxyphenyl-3-hydroxynaphthalene-2-carboxanilides” (Molecules, 2015).

The structures appear in SMILES notation. Converted amounts (≈) assume the structure as drawn.

`CCOc1cccc(NC(=O)c2cc3ccccc3cc2O)c1` [Compound 4b, N-(3-Ethoxyphenyl)-3-hydroxynaphthalene-2-carboxamide]: the minimal inhibitory concentration (MIC) (as a rule, the lowest concentration found to suppress growth) in assay [1] turned out to be 813 µM (≈ 250 µg/mL); in assay [4], 832 µM (≈ 256 µg/mL); in assay [5] it was 813 µM (≈ 250 µg/mL); in assay [6] it was 832 µM (≈ 256 µg/mL); in assay [7], 832 µM (≈ 256 µg/mL); in assay [8] it was 832 µM (≈ 256 µg/mL). The IC50 (in general, the concentration needed to halve the response being measured) in assay [2] was determined as 4.5 µM. Besides, the “chlorophyll a fluorescence emission” value in assay [3] was “decreased intensity of the emission band at 686 nm”.
